Drawing on patent US20250122218A1, “MODULATORS OF CYSTIC FIBROSIS TRANSMEMBRANE CONDUCTANCE REGULATOR” (Vertex Pharmaceuticals Incorporated, priority 2022, published 2025), this text covers EC50 for 22 molecules.

pEC50: −log10 of the molar value.

The target in the assay is T1, CFTR in F508del/MF-HBE cells (Homo sapiens, UniProt P13569, DEL508-508).
T1 construct: human bronchial epithelial (HBE) cells derived from CF subjects heterozygous for F508del and a minimal function CFTR mutation; endogenous in cells; host or cells: primary human bronchial epithelial cells from CF subjects (F508del/MF-HBE)
T1 sequence (P13569 with tags, fused parts or gaps DEL508-508): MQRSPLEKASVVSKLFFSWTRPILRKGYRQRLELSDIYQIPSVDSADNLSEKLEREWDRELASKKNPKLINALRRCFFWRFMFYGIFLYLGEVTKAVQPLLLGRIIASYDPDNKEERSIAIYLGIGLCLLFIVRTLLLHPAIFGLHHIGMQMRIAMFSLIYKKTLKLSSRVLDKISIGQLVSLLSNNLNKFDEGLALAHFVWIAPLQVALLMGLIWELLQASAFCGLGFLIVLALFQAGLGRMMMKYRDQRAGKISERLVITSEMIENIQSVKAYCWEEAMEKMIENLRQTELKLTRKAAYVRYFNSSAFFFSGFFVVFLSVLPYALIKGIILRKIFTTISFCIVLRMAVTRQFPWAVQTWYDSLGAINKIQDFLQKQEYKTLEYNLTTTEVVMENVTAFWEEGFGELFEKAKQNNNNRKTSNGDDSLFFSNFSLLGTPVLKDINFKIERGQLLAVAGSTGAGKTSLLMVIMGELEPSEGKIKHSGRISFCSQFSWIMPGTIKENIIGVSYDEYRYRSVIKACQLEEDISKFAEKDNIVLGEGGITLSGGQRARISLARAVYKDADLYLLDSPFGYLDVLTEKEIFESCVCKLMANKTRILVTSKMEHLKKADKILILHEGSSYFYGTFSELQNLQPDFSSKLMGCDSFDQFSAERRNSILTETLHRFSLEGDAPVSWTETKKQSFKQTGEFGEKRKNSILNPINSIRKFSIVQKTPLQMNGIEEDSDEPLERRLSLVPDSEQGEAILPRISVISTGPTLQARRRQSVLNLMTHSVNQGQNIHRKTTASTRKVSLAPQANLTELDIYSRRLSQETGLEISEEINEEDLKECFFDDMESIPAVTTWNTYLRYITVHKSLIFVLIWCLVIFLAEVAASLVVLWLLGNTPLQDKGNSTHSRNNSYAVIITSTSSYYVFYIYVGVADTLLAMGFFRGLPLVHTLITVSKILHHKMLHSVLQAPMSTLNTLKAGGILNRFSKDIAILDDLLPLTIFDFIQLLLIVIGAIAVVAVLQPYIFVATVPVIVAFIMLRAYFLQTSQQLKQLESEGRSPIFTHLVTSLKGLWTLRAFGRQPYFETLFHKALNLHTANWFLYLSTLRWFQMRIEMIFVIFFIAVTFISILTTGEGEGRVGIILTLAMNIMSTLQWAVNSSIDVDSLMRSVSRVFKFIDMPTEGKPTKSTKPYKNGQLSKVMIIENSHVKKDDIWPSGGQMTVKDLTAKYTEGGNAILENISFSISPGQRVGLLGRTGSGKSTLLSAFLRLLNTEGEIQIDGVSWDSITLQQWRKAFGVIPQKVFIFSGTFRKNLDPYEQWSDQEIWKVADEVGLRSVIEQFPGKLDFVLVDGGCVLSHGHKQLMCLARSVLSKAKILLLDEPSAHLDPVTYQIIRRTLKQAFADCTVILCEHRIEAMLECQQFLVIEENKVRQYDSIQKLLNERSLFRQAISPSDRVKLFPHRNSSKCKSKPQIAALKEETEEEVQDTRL
In words: Ussing chamber assay of CFTR-mediated short-circuit currents (identification of potentiator compounds). Type of assay: cell-based. The note with it: potentiator incubated 18-24 hours at 37° C. in combination with 10 μM corrector, in the presence of 20% human serum, CFTR-mediated ISC. The gist of the method: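 Short-circuit current was measured in Ussing chambers at 37° C, Vhold 0 mV, 30 μM apical amiloride. CFTR current was defined as the forskolin (20 μM) response relative to the current remaining after BPO/GlyH-101/inhibitor 172 (20 μM each). Before recording, cells had 18-24 h exposure to test potentiators with 10 μM corrector compound in 20% human serum.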
In the case of `Nc1cc(C(F)(F)F)c2nc1-c1nnc(o1)[C@@](O)(C(F)(F)F)CCCCCN(Cc1cccc(OC(F)(F)F)c1)C2=O` [Compound 142, (6R)-17-amino-6-hydroxy-12-[[3-(trifluoromethoxy)phenyl]methyl]-6,15-bis (trifluoromethyl)-19-oxa-3,4,12,18-tetrazatricyclo [12.3.1.12,5] nonadeca-1(18),2,4,14,1 6-pentaen-13-one], the pEC50 was over 6.30.
On to `CC(C)Oc1ccc(CN2CCCCC[C@](O)(C(F)(F)F)C3=NN=C(O3)c3nc(c(C(F)(F)F)cc3N)C2=O)cc1` [Compound 143, (6R)-17-amino-6-hydroxy-12-[(4-isopropoxyphenyl)methyl]-6,15-bis (trifluoromethyl)-19-oxa-3,4,12,18-tetrazatricyclo [12.3.1.12,5] nonadeca-1(18),2,4,14,1 6-pentaen-13-one], for which the pEC50 is over 6.30.
The figure for `Nc1cc(C(F)(F)F)c2nc1-c1nnc(o1)[C@@](O)(C(F)(F)F)CCCCCN(Cc1ccc(Cl)cc1)C2=O` [Compound 144, (6R)-17-amino-12-[(4-chlorophenyl)methyl]-6-hydroxy-6,15-bis (trifluoromethyl)-19-oxa-3,4,12,18-tetrazatricyclo [12.3.1.12,5] nonadeca-1(18),2,4,14,1 6-pentaen-13-one] is over 6.30; for `Nc1cc(C(F)(F)F)c2nc1-c1nnc(o1)[C@@](O)(C(F)(F)F)CCCCCN(Cc1ccc(F)cc1F)C2=O` [Compound 145, (6R)-17-amino-12-[(2,4-difluorophenyl)methyl]-6-hydroxy-6,15-bis (trifluoromethyl)-19-oxa-3,4,12,18-tetrazatricyclo [12.3.1.12,5] nonadeca-1(18),2,4,14,1 6-pentaen-13-one] it is over 6.30; for `Nc1cc(C(F)(F)F)c2nc1-c1nnc(o1)[C@@](O)(C(F)(F)F)CCCCCN(Cc1ccc(F)c(F)c1)C2=O` [Compound 146, (6R)-17-amino-12-[(3,4-difluorophenyl)methyl]-6-hydroxy-6,15-bis (trifluoromethyl)-19-oxa-3,4,12,18-tetrazatricyclo [12.3.1.12,5] nonadeca-1(18),2,4,14,1 6-pentaen-13-one] it is over 6.30.
Take `Nc1cc(C(F)(F)F)c2nc1-c1nnc(o1)[C@@](O)(C(F)(F)F)CCCCCN(Cc1ccc(C(F)(F)F)nc1)C2=O` [Compound 147, (6R)-17-amino-6-hydroxy-6,15-bis (trifluoromethyl)-12-[[6-(trifluoromethyl)-3-pyridyl]methyl]-19-oxa-3,4,12,18-tetrazatricyclo [12.3.1.12,5] nonadeca-1(18),2,4,14,1 6-pentaen-13-one]: the pEC50 is over 6.30.
The result for `CCCc1cccc(CN2CCCCC[C@](O)(C(F)(F)F)C3=NN=C(O3)c3nc(c(C(F)(F)F)cc3N)C2=O)c1` [Compound 148, (6R)-17-amino-6-hydroxy-12-[(3-propylphenyl)methyl]-6,15-bis (trifluoromethyl)-19-oxa-3,4,12,18-tetrazatricyclo [12.3.1.12,5] nonadeca-1(18),2,4,14,1 6-pentaen-13-one] reads over 6.30; that for `Nc1cc(C(F)(F)F)c2nc1-c1nnc(o1)[C@@](O)(C(F)(F)F)CCCCCN(Cc1cccc(Cl)c1)C2=O` [Compound 149, (6R)-17-amino-12-[(3-chlorophenyl)methyl]-6-hydroxy-6,15-bis (trifluoromethyl)-19-oxa-3,4,12,18-tetrazatricyclo [12.3.1.12,5] nonadeca-1(18),2,4,14,1 6-pentaen-13-one], over 6.30.
Regarding `CC1(C)Cc2cc(CN3CCCCC[C@](O)(C(F)(F)F)C4=NN=C(O4)c4nc(c(C(F)(F)F)cc4N)C3=O)ccc2O1` [Compound 150, (6R)-17-amino-12-[(2,2-dimethyl-3H-benzofuran-5-yl)methyl]-6-hydroxy-6,15-bis (trifluoromethyl)-19-oxa-3,4,12,18-tetrazatricyclo [12.3.1.12,5] nonadeca-1(18),2,4,14,1 6-pentaen-13-one], the pEC50 is over 6.30.
For the molecule `Nc1cc(C(F)(F)F)c2nc1-c1nnc(o1)[C@@](O)(C(F)(F)F)CCCCCN(Cc1ccc(C3(C(F)(F)F)CC3)cc1)C2=O` [Compound 151], the pEC50 was over 6.30.
The figure for `Nc1cc(C(F)(F)F)c2nc1-c1nnc(o1)[C@@](O)(C(F)(F)F)CCCCCN([C@H]1C[C@@H](c3ccccc3)C1)C2=O` [Compound 152, (6R)-17-amino-6-hydroxy-12-(3-phenylcyclobutyl)-6,15-bis (trifluoromethyl)-19-oxa-3,4,12,18-tetrazatricyclo [12.3.1.12,5] nonadeca-1(18),2,4,14,1 6-pentaen-13-one] is over 6.30; for `Nc1cc(C(F)(F)F)c2nc1-c1nnc(o1)[C@@](O)(C(F)(F)F)CCCCCN(Cc1ccc(OC(F)(F)F)c(Cl)c1)C2=O` [Compound 153, (6R)-17-amino-12-[[3-chloro-4-(trifluoromethoxy)phenyl]methyl]-6-hydroxy-6,15-bis(trifluoromethyl)-19-oxa-3,4,12,18-tetrazatricyclo [12.3.1.12,5] nonadeca-1(18),2,4,14,1 6-pentaen-13-one] it is over 6.30.
For the molecule `C[C@@H](c1ccc(OC(F)(F)F)cc1)N1CCCCC[C@](O)(C(F)(F)F)C2=NN=C(O2)c2nc(c(C(F)(F)F)cc2N)C1=O` [Compound 154, (6R)-17-amino-6-hydroxy-12-[(1S)-1-[4-(trifluoromethoxy)phenyl]ethyl]-6,15-bis (trifluoromethyl)-19-oxa-3,4,12,18-tetrazatricyclo [12.3.1.12,5] nonadeca-1(18),2,4,14,1 6-pentaen-13-one], the pEC50 is over 6.30.
The figure for `COc1ccccc1CN1CCCCC[C@](O)(C(F)(F)F)C2=NN=C(O2)c2nc(c(C(F)(F)F)cc2N)C1=O` [Compound 155, (6R)-17-amino-6-hydroxy-12-[(2-methoxyphenyl)methyl]-6,15-bis (trifluoromethyl)-19-oxa-3,4,12,18-tetrazatricyclo [12.3.1.12,5] nonadeca-1(18),2,4,14,1 6-pentaen-13-one] is over 6.30; for `Nc1cc(C(F)(F)F)c2nc1-c1nnc(o1)[C@@](O)(C(F)(F)F)CCCCCN(Cc1ccccc1C(F)(F)F)C2=O` [Compound 156, (6R)-17-amino-6-hydroxy-6,15-bis (trifluoromethyl)-12-[[2-(trifluoromethyl)phenyl]methyl]-19-oxa-3,4,12,18-tetrazatricyclo [12.3.1.12,5] nonadeca-1(18),2,4,14,1 6-pentaen-13-one] it is over 6.30; for `Cc1cc(OC(F)(F)F)ccc1CN1CCCCC[C@](O)(C(F)(F)F)C2=NN=C(O2)c2nc(c(C(F)(F)F)cc2N)C1=O` [Compound 157, (6R)-17-amino-6-hydroxy-12-[[2-methyl-4-(trifluoromethoxy)phenyl]methyl]-6,15-bis (trifluoromethyl)-19-oxa-3,4,12,18-tetrazatricyclo [12.3.1.12,5] nonadeca-1(18),2,4,14,1 6-pentaen-13-one] it is over 6.30.
As for `COc1cc(OC(F)(F)F)ccc1CN1CCCCC[C@](O)(C(F)(F)F)C2=NN=C(O2)c2nc(c(C(F)(F)F)cc2N)C1=O` [Compound 158, (6R)-17-amino-6-hydroxy-12-[[2-methoxy-4-(trifluoromethoxy)phenyl]methyl]-6,15-bis(trifluoromethyl)-19-oxa-3,4,12,18-tetrazatricyclo [12.3.1.12,5] nonadeca-1(18),2,4,14,1 6-pentaen-13-one], the negative-log EC50 (pEC50) was over 6.30.
In the case of `Nc1cc(C(F)(F)F)c2nc1-c1nnc(o1)[C@@](O)(C(F)(F)F)CCCCCN(Cc1ccc(OC(F)(F)F)cc1F)C2=O` [Compound 159, (6R)-17-amino-12-[[2-fluoro-4-(trifluoromethoxy)phenyl]methyl]-6-hydroxy-6,15-bis (trifluoromethyl)-19-oxa-3,4,12,18-tetrazatricyclo [12.3.1.12,5] nonadeca-1(18),2,4,14,1 6-pentaen-13-one], the pEC50 is over 6.30.
As for `COc1ccc(CN2CCCCC[C@](O)(C(F)(F)F)C3=NN=C(O3)c3nc(c(C(F)(F)F)cc3N)C2=O)cc1F` [Compound 160, (6R)-17-amino-12-[(3-fluoro-4-methoxy-phenyl)methyl]-6-hydroxy-6,15-bis (trifluoromethyl)-19-oxa-3,4,12,18-tetrazatricyclo [12.3.1.12,5] nonadeca-1(18),2,4,14,1 6-pentaen-13-one], the negative logarithm of the EC50 (pEC50) was over 6.30.
The figure for `Nc1cc(C(F)(F)F)c2nc1-c1nnc(o1)[C@@](O)(C(F)(F)F)CCCCCN(Cc1ccc(OC(F)(F)C(F)F)cc1)C2=O` [Compound 161, (6R)-17-amino-6-hydroxy-12-[[4-(1,1,2,2-tetrafluoroethoxy)phenyl]methyl]-6,15-bis (trifluoromethyl)-19-oxa-3,4,12,18-tetrazatricyclo [12.3.1.12,5] nonadeca-1(18),2,4,14,1 6-pentaen-13-one] is over 6.30; for `CCCc1ccc(CN2CCCCC[C@](O)(C(F)(F)F)C3=NN=C(O3)c3nc(c(C(F)(F)F)cc3N)C2=O)cc1` [Compound 162, (6R)-17-amino-6-hydroxy-12-[(4-propylphenyl)methyl]-6,15-bis (trifluoromethyl)-19-oxa-3,4,12,18-tetrazatricyclo [12.3.1.12,5] nonadeca-1(18),2,4,14,1 6-pentaen-13-one] it is over 6.30.
For `COc1cc(CN2CCCCC[C@](O)(C(F)(F)F)C3=NN=C(O3)c3nc(c(C(F)(F)F)cc3N)C2=O)ccc1F` [Compound 163, (6R)-17-amino-12-[(4-fluoro-3-methoxy-phenyl)methyl]-6-hydroxy-6,15-bis (trifluoromethyl)-19-oxa-3,4,12,18-tetrazatricyclo [12.3.1.12,5] nonadeca-1(18),2,4,14,1 6-pentaen-13-one], the pEC50 is over 6.30.
